Assay results taken from PubChem BioAssay AID248 (DTP/NCI, 2004).
Several values for one entry are separate records, joined by “and”; a condition that tells them apart may be missing. Equal entries are not always repeated. Toxic doses and inconclusive results are not listed. Rule as the data show it: active = T/C of 150% or more; inactive = T/C below 125%.

Test system: L1210 leukemia ip in BDF1 mice, survival T/C
Experiment: NCI In Vivo Anticancer Drug Screen. Data for tumor model L1210 Leukemia (intraperitoneal) in B6D2F1 (BDF1) mice
Settings: endpoint: mean survival time, higher = longer survival
In short: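 Read-out is survival time, reported as the treated-group measurement over the vehicle-control measurement.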

[1] = dose: 100.0 mg/kg/injection, schedule: Q04DX003 (ip), vehicle: saline
[2] = dose: 200.0 mg/kg/injection, schedule: Q04DX003 (ip), vehicle: saline
[3] = dose: 400.0 mg/kg/injection, schedule: Q04DX003 (ip), vehicle: saline
[4] = dose: 100.0 mg/kg/injection, schedule: Q01DX009 (ip), vehicle: Klucel (hydroxypropylcellulose) (HPC)
[5] = dose: 200.0 mg/kg/injection, schedule: Q01DX009 (ip), vehicle: Klucel (hydroxypropylcellulose) (HPC)
[6] = dose: 100.0 mg/kg/injection, schedule: Q04DX002 (ip), vehicle: Klucel (hydroxypropylcellulose) (HPC)
[7] = dose: 25.0 mg/kg/injection, schedule: Q01DX009 (ip), vehicle: Klucel (hydroxypropylcellulose) (HPC)
[8] = dose: 50.0 mg/kg/injection, schedule: Q01DX009 (ip), vehicle: Klucel (hydroxypropylcellulose) (HPC)
[9] = dose: 100.0 mg/kg/injection, schedule: Q01DX001 (ip), vehicle: saline
[10] = dose: 200.0 mg/kg/injection, schedule: Q01DX001 (ip), vehicle: saline
[11] = dose: 400.0 mg/kg/injection, schedule: Q01DX001 (ip), vehicle: saline
[12] = dose: 100.0 mg/kg/injection, schedule: Q01DX001 (ip), vehicle: carboxymethylcellulose (CMC)
[13] = dose: 200.0 mg/kg/injection, schedule: Q01DX001 (ip), vehicle: carboxymethylcellulose (CMC)
[14] = dose: 400.0 mg/kg/injection, schedule: Q01DX001 (ip), vehicle: carboxymethylcellulose (CMC)

Measured: T/C

S=c1cc(-c2cccs2)ss1
inactive: dose: 50.0 mg/kg/injection, schedule: Q01DX009 (ip), vehicle: saline 107 % of control | dose: 100.0 mg/kg/injection, schedule: Q01DX009 (ip), vehicle: saline 96 % of control and 91 % of control | [1] 93 % of control | dose: 200.0 mg/kg/injection, schedule: Q01DX009 (ip), vehicle: saline 93 % of control and 91 % of control | [2] 105 % of control | dose: 300.0 mg/kg/injection, schedule: Q01DX009 (ip), vehicle: saline 95 % of control | dose: 400.0 mg/kg/injection, schedule: Q01DX009 (ip), vehicle: saline 98 % of control | [3] 88 % of control

O=C(Nc1cccc(F)c1)Nc1cccc([N+](=O)[O-])c1
inactive: [4] 102 % of control | [5] 102 % of control | dose: 400.0 mg/kg/injection, schedule: Q01DX009 (ip), vehicle: Klucel (hydroxypropylcellulose) (HPC) 97 % of control

C(C#Cc1ccccc1)#Cc1ccccc1
inactive: [1] 94 % of control | [2] 100 % of control | [3] 97 % of control

O=[N+]([O-])c1ccc(N2N=NC3CC/C(=C\c4cccc([N+](=O)[O-])c4)C32N2CCOCC2)cc1 (stereo not drawn)
inactive: dose: 25.0 mg/kg/injection, schedule: Q04DX002 (ip), vehicle: Klucel (hydroxypropylcellulose) (HPC) 104 % of control | dose: 50.0 mg/kg/injection, schedule: Q04DX002 (ip), vehicle: Klucel (hydroxypropylcellulose) (HPC) 101 % of control | [6] 88 % of control

Cn1cc(NC(=O)c2cc(NC(=O)c3cc(NC=O)cn3C)cn2C)cc1C(=O)NCCC(=N)N
inactive: dose: 12.5 mg/kg/injection, schedule: Q01DX009 (ip), vehicle: Klucel (hydroxypropylcellulose) (HPC) 95 % of control | [7] 98 % of control | dose: 25.0 mg/kg/injection, schedule: Q01DX Z (ip), vehicle: water 100 % of control | [8] 92 % of control | dose: 50.0 mg/kg/injection, schedule: Q01DX Z (ip), vehicle: water 104 % of control | dose: 75.0 mg/kg/injection, schedule: Q01DX Z (ip), vehicle: water 104 % of control | dose: 100.0 mg/kg/injection, schedule: Q01DX Z (ip), vehicle: water 100 % of control

CCCCCCC1CCC(O)C1CCCCCCC(=O)O (stereo not drawn)
inactive: dose: 50.0 mg/kg/injection, schedule: Q04DX002 (ip), vehicle: saline 98 % of control | dose: 100.0 mg/kg/injection, schedule: Q04DX002 (ip), vehicle: saline 91 % of control | dose: 200.0 mg/kg/injection, schedule: Q04DX002 (ip), vehicle: saline 91 % of control

O=C(Nc1ccc(S(=O)(=O)NC2CCCCC2)cc1)Oc1ccccc1C(=O)O
inactive: [9] 100 % of control | [10] 91 % of control | [11] 100 % of control

Brc1cc(Br)c2c(c1)-c1ccccc1C2
inactive: [12] 96 % of control | [13] 113 % of control | [14] 96 % of control

Cc1cccc(C(=O)O)n1.[Cu+2]
inactive: dose: 5.0 mg/kg/injection, schedule: Q01DX001 (ip), vehicle: saline 103 % of control | dose: 10.0 mg/kg/injection, schedule: Q01DX001 (ip), vehicle: saline 113 % of control

Cc1ccc2c3c(c(=O)oc2c1)CCCC3
inactive: dose: 50.0 mg/kg/injection, schedule: Q01DX001 (ip), vehicle: carboxymethylcellulose (CMC) 96 % of control | [12] 112 % of control | [13] 100 % of control | [14] 108 % of control

NC(N)=N/N=C(/CCC(=O)O)C(=O)O
inactive: dose: 15.0 mg/kg/injection, schedule: Q01DX Z (ip), vehicle: carboxymethylcellulose (CMC) 100 % of control | dose: 30.0 mg/kg/injection, schedule: Q01DX Z (ip), vehicle: carboxymethylcellulose (CMC) 107 % of control | dose: 60.0 mg/kg/injection, schedule: Q01DX Z (ip), vehicle: carboxymethylcellulose (CMC) 100 % of control and 104 % of control | dose: 60.0 mg/kg/injection, schedule: Q01DX Z (oral), vehicle: carboxymethylcellulose (CMC) 104 % of control | dose: 60.0 mg/kg/injection, schedule: Q01DX Z (oral), vehicle: saline 95 % of control | dose: 120.0 mg/kg/injection, schedule: Q01DX Z (ip), vehicle: carboxymethylcellulose (CMC) 101 % of control and 106 % of control | dose: 120.0 mg/kg/injection, schedule: Q01DX Z (oral), vehicle: carboxymethylcellulose (CMC) 98 % of control | dose: 120.0 mg/kg/injection, schedule: Q01DX Z (oral), vehicle: saline 96 % of control | dose: 240.0 mg/kg/injection, schedule: Q01DX Z (ip), vehicle: carboxymethylcellulose (CMC) 98 % of control | dose: 240.0 mg/kg/injection, schedule: Q01DX Z (oral), vehicle: carboxymethylcellulose (CMC) 107 % of control | dose: 240.0 mg/kg/injection, schedule: Q01DX Z (oral), vehicle: saline 98 % of control | dose: 480.0 mg/kg/injection, schedule: Q01DX Z (oral), vehicle: carboxymethylcellulose (CMC) 98 % of control | dose: 480.0 mg/kg/injection, schedule: Q01DX Z (oral), vehicle: saline 98 % of control | dose: 960.0 mg/kg/injection, schedule: Q01DX Z (oral), vehicle: carboxymethylcellulose (CMC) 98 % of control and 113 % of control | dose: 960.0 mg/kg/injection, schedule: Q01DX Z (oral), vehicle: saline 101 % of control

COC(=O)c1ccccc1NC(=O)Nc1cc(Cl)ccc1C
inactive: dose: 100.0 mg/kg/injection, schedule: Q01DX001 (ip), vehicle: saline with Tween-80 87 % of control | dose: 100.0 mg/kg/injection, schedule: Q01DX009 (ip), vehicle: saline with Tween-80 91 % of control and 92 % of control | dose: 100.0 mg/kg/injection, schedule: Q04DX002 (ip), vehicle: saline with Tween-80 95 % of control and 88 % of control | dose: 100.0 mg/kg/injection, schedule: Q04DX003 (ip), vehicle: saline with Tween-80 101 % of control | dose: 200.0 mg/kg/injection, schedule: Q01DX001 (ip), vehicle: saline with Tween-80 90 % of control | dose: 200.0 mg/kg/injection, schedule: Q01DX009 (ip), vehicle: saline with Tween-80 93 % of control and 94 % of control | dose: 200.0 mg/kg/injection, schedule: Q04DX002 (ip), vehicle: saline with Tween-80 88 % of control and 91 % of control | dose: 200.0 mg/kg/injection, schedule: Q04DX003 (ip), vehicle: saline with Tween-80 92 % of control | dose: 400.0 mg/kg/injection, schedule: Q01DX001 (ip), vehicle: saline with Tween-80 88 % of control | dose: 400.0 mg/kg/injection, schedule: Q01DX009 (ip), vehicle: saline with Tween-80 94 % of control and 101 % of control | dose: 400.0 mg/kg/injection, schedule: Q04DX002 (ip), vehicle: saline with Tween-80 93 % of control and 91 % of control | dose: 400.0 mg/kg/injection, schedule: Q04DX003 (ip), vehicle: saline with Tween-80 90 % of control

CCc1ccc([N+](=O)[O-])cc1
inactive: [12] 95 % of control | [13] 103 % of control | [14] 97 % of control

CCc1cnccc1C
inactive: dose: 20.0 mg/kg/injection, schedule: Q04DX003 (ip), vehicle: Klucel (hydroxypropylcellulose) (HPC) 108 % of control | [7] 102 % of control | dose: 40.0 mg/kg/injection, schedule: Q04DX003 (ip), vehicle: Klucel (hydroxypropylcellulose) (HPC) 102 % of control | [8] 107 % of control | dose: 80.0 mg/kg/injection, schedule: Q04DX003 (ip), vehicle: Klucel (hydroxypropylcellulose) (HPC) 108 % of control | [4] 111 % of control | dose: 100.0 mg/kg/injection, schedule: Q04DX003 (ip), vehicle: Klucel (hydroxypropylcellulose) (HPC) 104 % of control

CN(C)c1ccc(C(=O)CCCN2CCC(O)(c3ccc(Cl)cc3)CC2)cc1
inactive: dose: 100.0 mg/kg/injection, schedule: Q01DX001 (ip), vehicle: Klucel (hydroxypropylcellulose) (HPC) 95 % of control | dose: 200.0 mg/kg/injection, schedule: Q01DX001 (ip), vehicle: Klucel (hydroxypropylcellulose) (HPC) 94 % of control | dose: 400.0 mg/kg/injection, schedule: Q01DX001 (ip), vehicle: Klucel (hydroxypropylcellulose) (HPC) 90 % of control

CN(C)c1ccc(C=Nc2cc(Cl)ccc2O)cc1
inactive: [9] 107 % of control | [10] 100 % of control | [11] 100 % of control

O=C1COc2ccc(F)cc2N1
inactive: [6] 98 % of control | dose: 200.0 mg/kg/injection, schedule: Q04DX002 (ip), vehicle: Klucel (hydroxypropylcellulose) (HPC) 102 % of control | dose: 400.0 mg/kg/injection, schedule: Q04DX002 (ip), vehicle: Klucel (hydroxypropylcellulose) (HPC) 109 % of control

CCOC(=O)c1cnc2c(ccc3cc(OC)ccc32)c1Cl
inactive: [8] 101 % of control | [4] 97 % of control | [5] 101 % of control
